Results filed as inconclusive are left out.
Test system: MX-1 breast xenograft, nude mice, tumor weight T/C
Assay: NCI In Vivo Anticancer Drug Screen. Data for tumor model Human Mammary Carcinoma MX-1 Xenograft (intrarenal inoculation) in NU/NU Swiss (nude) mice
Conditions: endpoint: mean tumor weight change, higher = larger tumour
Outline: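 Activity is given as a ratio, with each measurement in the compound-treated arm divided by the matching measurement in vehicle-dosed controls. Tumour size or survival serves as the measured parameter.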

## COc1cccc2c1C(=O)c1c(O)c3c(c(O)c1C2=O)CC(O)(C(=O)CO)CC3OC1CC(N)C(O)C(C)O1 (centres undefined)
dose: 12.0 mg/kg/injection, schedule: Q01DX010 (sc), vehicle: saline
  T/C: 90 % of control
dose: 24.0 mg/kg/injection, schedule: Q01DX010 (sc), vehicle: saline
  T/C: 80 % of control
dose: 25.0 mg/kg/injection, schedule: Q01DX010 (sc), vehicle: saline
  T/C: 78 % of control
dose: 37.5 mg/kg/injection, schedule: Q01DX010 (sc), vehicle: water
  T/C: 281 % of control
dose: 48.0 mg/kg/injection, schedule: Q01DX010 (sc), vehicle: saline
  T/C: 9 % of control
dose: 50.0 mg/kg/injection, schedule: Q01DX010 (sc), vehicle: saline
  T/C: 22 % of control
dose: 75.0 mg/kg/injection, schedule: Q01DX010 (sc), vehicle: water
  T/C: 229 % of control
dose: 96.0 mg/kg/injection, schedule: Q01DX010 (sc), vehicle: saline
  T/C: 4 % of control
dose: 150.0 mg/kg/injection, schedule: Q01DX010 (sc), vehicle: water
  T/C: 233 % of control
dose: 300.0 mg/kg/injection, schedule: Q01DX010 (sc), vehicle: water
  T/C: 81 % of control

## COc1cc([C@@H]2c3cc4c(cc3[C@@H](OC3OC5CO[C@@H](c6cccs6)OC5C(O)C3O)[C@H]3COC(=O)[C@H]23)OCO4)cc(OC)c1O (some centres undefined)
dose: 8.0 mg/kg/injection, schedule: Q01DX010 (sc), vehicle: saline
  T/C: 67 % of control
dose: 16.0 mg/kg/injection, schedule: Q01DX010 (sc), vehicle: saline
  T/C: 60 % of control
dose: 32.0 mg/kg/injection, schedule: Q01DX010 (sc), vehicle: saline
  T/C: 96 % of control
dose: 64.0 mg/kg/injection, schedule: Q01DX010 (sc), vehicle: saline
  T/C: 44 % of control
dose: 66.0 mg/kg/injection, schedule: Q01DX010 (sc), vehicle: saline
  T/C: 55 % of control
dose: 132.0 mg/kg/injection, schedule: Q01DX010 (sc), vehicle: saline
  T/C: 34 % of control
dose: 264.0 mg/kg/injection, schedule: Q01DX010 (sc), vehicle: saline
  T/C: 40 % of control
dose: 528.0 mg/kg/injection, schedule: Q01DX010 (sc), vehicle: saline
  T/C: 79 % of control

## O=[N+]([O-])c1c(O)c(CNCCCO)cc(CNCCCO)c1O
dose: 37.5 mg/kg/injection, schedule: Q04DX003 (ip), vehicle: suspension in saline
  T/C: 50 % of control
dose: 75.0 mg/kg/injection, schedule: Q04DX003 (ip), vehicle: suspension in saline
  T/C: 55 % of control

## O=Cc1ccc([N+](=O)[O-])s1
dose: 25.0 mg/kg/injection, schedule: Q01DX010 (sc), vehicle: saline with Tween-80
  T/C: 90 % of control
dose: 50.0 mg/kg/injection, schedule: Q01DX010 (sc), vehicle: saline with Tween-80
  T/C: 89 % of control
dose: 100.0 mg/kg/injection, schedule: Q01DX010 (sc), vehicle: saline with Tween-80
  T/C: 56 % of control

## C1CCC2C[N-]CCC2C1.C1CCC2C[N-]CCC2C1.C1CCC2C[N-]CCC2C1.C1CCC2C[N-]CCC2C1.[Cl][Rh][Cl] (centres undefined)
dose: 18.0 mg/kg/injection, schedule: Q04DX003 (sc), vehicle: saline with Tween-80
  T/C: 107 % of control
dose: 36.0 mg/kg/injection, schedule: Q04DX003 (sc), vehicle: saline with Tween-80
  T/C: 103 % of control
dose: 72.0 mg/kg/injection, schedule: Q04DX003 (sc), vehicle: saline with Tween-80
  T/C: 86 % of control
dose: 144.0 mg/kg/injection, schedule: Q04DX003 (sc), vehicle: saline with Tween-80
  T/C: 78 % of control

## CN(C)c1ccc(C(=C2C=CC(=[N+](C)C)C=C2)c2ccc(N(C)C)cc2)cc1 (tested in a mixture with another compound)
dose: 15.0 mg/kg/injection, schedule: Q04DX003 (sc), vehicle: saline with Tween-80
  T/C: 70 % of control
dose: 30.0 mg/kg/injection, schedule: Q04DX003 (sc), vehicle: saline with Tween-80
  T/C: 104 % of control
dose: 60.0 mg/kg/injection, schedule: Q04DX003 (sc), vehicle: saline with Tween-80
  T/C: 97 % of control
dose: 120.0 mg/kg/injection, schedule: Q04DX003 (sc), vehicle: saline with Tween-80
  T/C: 82 % of control

## CS(=O)(=O)OCCC(=O)N1CCN(C(=O)CCOS(C)(=O)=O)CC1
dose: 300.0 mg/kg/injection, schedule: Q04DX003 (sc), vehicle: suspension in saline
  T/C: 8 % of control
dose: 600.0 mg/kg/injection, schedule: Q04DX003 (sc), vehicle: suspension in saline
  T/C: -100 % of control
dose: 1200.0 mg/kg/injection, schedule: Q04DX003 (sc), vehicle: suspension in saline
  T/C: -100 % of control

## Nc1ccc2ccc(NS(=O)(=O)N3CCCCC3)cc2c1
dose: 150.0 mg/kg/injection, schedule: Q04DX003 (ip), vehicle: saline with Tween-80
  T/C: 110 % of control
dose: 300.0 mg/kg/injection, schedule: Q04DX003 (ip), vehicle: saline with Tween-80
  T/C: 72 % of control
dose: 600.0 mg/kg/injection, schedule: Q04DX003 (ip), vehicle: saline with Tween-80
  T/C: 86 % of control
dose: 1200.0 mg/kg/injection, schedule: Q04DX003 (ip), vehicle: saline with Tween-80
  T/C: 92 % of control

## COC(=O)Nc1nc2ccc(C3(c4ccc(F)cc4)OCCO3)cc2[nH]1
dose: 50.0 mg/kg/injection, schedule: Q04DX003 (sc), vehicle: saline with Tween-80
  T/C: 100 % of control
dose: 100.0 mg/kg/injection, schedule: Q04DX003 (sc), vehicle: saline with Tween-80
  T/C: 79 % of control

## CN1CCN(c2ccc([N+](=O)[O-])c3no[n+]([O-])c23)CC1
dose: 20.0 mg/kg/injection, schedule: Q01DX010 (sc), vehicle: saline with Tween-80
  T/C: 45 % of control
dose: 40.0 mg/kg/injection, schedule: Q01DX010 (sc), vehicle: saline with Tween-80
  T/C: 69 % of control

## C[Si](C)(CCl)N[Si](C)(C)CCl
dose: 300.0 mg/kg/injection, schedule: Q04DX003 (sc), vehicle: saline with Tween-80
  T/C: 50 % of control
dose: 600.0 mg/kg/injection, schedule: Q04DX003 (sc), vehicle: saline with Tween-80
  T/C: 35 % of control

## CCCCc1ccc2nc(NC(=O)OC)[nH]c2c1
dose: 200.0 mg/kg/injection, schedule: Q01DX010 (sc), vehicle: saline with Tween-80
  T/C: 109 % of control
dose: 400.0 mg/kg/injection, schedule: Q01DX010 (sc), vehicle: saline with Tween-80
  T/C: 69 % of control
dose: 800.0 mg/kg/injection, schedule: Q01DX010 (sc), vehicle: saline with Tween-80
  T/C: 48 % of control

## Nc1ccc(Cl)cc1N
dose: 450.0 mg/kg/injection, schedule: Q04DX003 (sc), vehicle: saline with Tween-80
  T/C: 116 % of control
dose: 900.0 mg/kg/injection, schedule: Q04DX003 (sc), vehicle: saline with Tween-80
  T/C: 73 % of control
dose: 1800.0 mg/kg/injection, schedule: Q04DX003 (sc), vehicle: saline with Tween-80
  T/C: 71 % of control

## CC(=S)NC(O)C(=O)c1ccccc1 (centres undefined)
dose: 200.0 mg/kg/injection, schedule: Q04DX003 (sc), vehicle: saline with Tween-80
  T/C: 163 % of control
dose: 400.0 mg/kg/injection, schedule: Q04DX003 (sc), vehicle: saline with Tween-80
  T/C: 122 % of control
dose: 800.0 mg/kg/injection, schedule: Q04DX003 (sc), vehicle: saline with Tween-80
  T/C: 152 % of control
dose: 1600.0 mg/kg/injection, schedule: Q04DX003 (sc), vehicle: saline with Tween-80
  T/C: 123 % of control

## CC[C@@]1(O)C[C@H](OC2CC(N(C)C)C(OC3CC(O)C(OC4CCC(=O)C(C)O4)C(C)O3)C(C)O2)c2c(cc3c(c2O)C(=O)c2c(O)ccc(O)c2C3=O)[C@H]1C(=O)OC (some centres undefined)
dose: 3.0 mg/kg/injection, schedule: Q04DX003 (sc), vehicle: water
  T/C: 88 % of control
dose: 6.0 mg/kg/injection, schedule: Q04DX003 (sc), vehicle: water
  T/C: 43 % of control

## CCOC(=O)c1ccc(NN=NCCF)cc1
dose: 150.0 mg/kg/injection, schedule: Q04DX003 (ip), vehicle: distilled water + Tween-80 + alcohol
  T/C: 107 % of control
dose: 300.0 mg/kg/injection, schedule: Q04DX003 (ip), vehicle: distilled water + Tween-80 + alcohol
  T/C: 112 % of control
dose: 600.0 mg/kg/injection, schedule: Q04DX003 (ip), vehicle: distilled water + Tween-80 + alcohol
  T/C: 55 % of control

## O=C1NCC(Br)C(=O)N1 (centres undefined)
dose: 150.0 mg/kg/injection, schedule: Q04DX003 (sc), vehicle: saline with Tween-80
  T/C: 100 % of control

## CC(=O)NC(CCc1ccc(Cl)c(Cl)c1)c1cccc(O)c(=O)c1 (centres undefined)
dose: 50.0 mg/kg/injection, schedule: Q04DX003 (sc), vehicle: Klucel (hydroxypropylcellulose) (HPC)
  T/C: 95 % of control
dose: 100.0 mg/kg/injection, schedule: Q04DX003 (sc), vehicle: Klucel (hydroxypropylcellulose) (HPC)
  T/C: 69 % of control
dose: 200.0 mg/kg/injection, schedule: Q04DX003 (sc), vehicle: Klucel (hydroxypropylcellulose) (HPC)
  T/C: 90 % of control
dose: 400.0 mg/kg/injection, schedule: Q04DX003 (sc), vehicle: Klucel (hydroxypropylcellulose) (HPC)
  T/C: 119 % of control
